# Results from patent publication US10703757B2, “Compounds and methods for CDK8 modulation and indications therefor” (Plexxikon Inc., priority 2016, dated 2020).
# pIC50: −log10 of the molar value.
# Columns and labels:
# [1] = system: CDK8 (phosphorylation of STAT1 at serine 727 in A549 cells); assay: Cell based Phospho-STAT1 assay (IFNγ-stimulated A549 cells, AlphaLISA); conditions: Homo sapiens, A549, A549 cells, phospho-STAT1 after IFNγ stimulation
# Outline: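 A549 cells given serial compound dilutions for 1 h at 37 °C, then stimulated with IFNγ at 10 ng/mL final for 30 min. Lysate STAT1 Ser727 phosphorylation measured by AlphaLISA; % inhibition vs stimulated/unstimulated DMSO controls, IC50 by nonlinear regression.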
# [2] = system: CDK8 (TCF/LEF luciferase reporter in HCT116 cells); assay: Cell based TCF/LEF reporter assay (HCT116+TCF/LEF luciferase); conditions: Homo sapiens, HCT-116, 24 h
# Outline: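 Luciferase readout was corrected for viability (CellTiter-Fluor) and scaled between DMSO high and 10 uM CCT251545 low controls, giving IC50 by nonlinear regression. Compounds, serially diluted, were incubated 24 h at 37 °C on HCT116 clones stably expressing a TCF/LEF-driven luciferase reporter.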
pIC50 [1],pIC50 [2],SMILES
7.00 to 10.00,7.00 to 10.00,"COc1ccc2cc(-c3cnn4ccnc(C5=CCC(C(N)=O)CC5)c34)ccc2n1 (stereo not drawn) [Compound P-0154, 4-(3-(2-methoxyquinolin-6-yl)pyrazolo[1,5-a]pyrazin-4-yl)cyclohex-3-ene-1-carboxamide]"
7.00 to 10.00,7.00 to 10.00,"CC(C)(O)Cn1ncc2cc(-c3cnn4ccnc(C#CC(C)(C)C(N)=O)c34)ccc21 [Compound P-0091, 4-(3-(1-(2-hydroxy-2-methylpropyl)-1H-indazol-5-yl)pyrazolo[1,5-a]pyrazin-4-yl)-2,2-dimethylbut-3-ynamide]"
7.00 to 10.00,7.00 to 10.00,"N#CC1CC=C(c2nccn3ncc(-c4ccc(-c5cnn(CC(F)F)c5)cc4)c23)CC1 (stereo not drawn) [Compound P-0029, 4-(3-(4-(1-(2,2-difluoroethyl)-1H-pyrazol-4-yl)phenyl)pyrazolo[1,5-a]pyrazin-4-yl)cyclohex-3-ene-1-carbonitrile]"
7.00 to 10.00,7.00 to 10.00,"Cn1cc(-c2ccc(-c3cnc4cccc(C5=CCC(C#N)CC5)n34)cc2)cn1 (stereo not drawn) [Compound P-0445, 4-(3-(4-(1-methyl-1H-pyrazol-4-yl)phenyl)imidazo[1,2-a]pyridin-5-yl)cyclohex-3-ene-1-carbonitrile]"
7.00 to 10.00,7.00 to 10.00,"CC(C)(C#N)Cn1cc(-c2ccc(-c3cnn4ccnc(C5=CCC(C#N)CC5)c34)cc2)cn1 (stereo not drawn) [Compound P-0048, 4-(3-(4-(1-(2-cyano-2-methylpropyl)-1H-pyrazol-4-yl)phenyl)pyrazolo[1,5-a]pyrazin-4-yl)cyclohex-3-ene-1-carbonitrile]"
6.00 to 7.00,6.00 to 7.00,"O=C1NCCC12CCN(c1cccn3ncc(-c4ccc(OCCN5CCOCC5)cc4)c13)CC2 [Compound P-0135, 8-(3-(4-(2-morpholino-ethoxy)phenyl)pyrazolo[1,5-a]pyridin-4-yl)-2,8-diazaspiro[4.5]decan-1-one]"
7.00 to 10.00,7.00 to 10.00,"N#CC1CC=C(c2cccn3ncc(-c4ccc(OCC(O)CN5CCCCC5)cc4)c23)CC1 (stereo not drawn) [Compound P-0128, 4-(3-(4-(2-hydroxy-3-(piperidin-1-yl)propoxy)phenyl)pyrazolo[1,5-a]pyridin-4-yl)cyclohex-3-ene-1-carbonitrile]"
7.00 to 10.00,7.00 to 10.00,"CS(=O)(=O)Cn1cc(-c2ccc(-c3cnn4ccnc(C5=CCC(C#N)CC5)c34)cc2)cn1 (stereo not drawn) [Compound P-0028, 4-(3-(4-(1-((methylsulfonyl)methyl)-1H-pyrazol-4-yl)phenyl)pyrazolo[1,5-a]pyrazin-4-yl)cyclohex-3-ene-1-carbonitrile]"
6.00 to 7.00,6.00 to 7.00,"N#CC1CCN(c2cccn3ncc(-c4ccc(C(=O)N5CCCC5)cc4)c23)CC1 [Compound P-0257, 1-(3-(4-(pyrrolidine-1-carbonyl)phenyl)pyrazolo[1,5-a]pyridin-4-yl)piperidine-4-carbonitrile]"
6.00 to 7.00,6.00 to 7.00,"Cn1cc(C#Cc2cnc3cccc(N4CCC5(CC4)NCNC5=O)n23)cn1 [Compound P-0275, 8-(3-((1-methyl-1H-pyrazol-4-yl)ethynyl)imidazo[1,2-a]pyridin-5-yl)-1,3,8-triazaspiro[4.5]decan-4-one]"
7.00 to 10.00,7.00 to 10.00,"N#CC1CC=C(c2nccn3ncc(-c4ccc(OCCN5CCOCC5)cc4)c23)CC1 (stereo not drawn) [Compound P-0085, 4-(3-(4-(2-morpholinoethoxy)phenyl)pyrazolo [1,5-a]pyrazin-4-yl)cyclohex-3-ene-1-carbonitrile]"
7.00 to 10.00,7.00 to 10.00,"CC(C)(O)Cn1cc(-c2ccc(-c3cnn4ccnc(C5CCC(C#N)CC5)c34)nc2)cn1 (stereo not drawn) [Compound P-0458, (1s,4s)-4-(3-(5-(1-(2-hydroxy-2-methylpropyl)-1H-pyrazol-4-yl)pyridin-2-yl)pyrazolo[1,5-a]pyrazin-4-yl)cyclohexane-1-carbonitrile]"
6.00 to 7.00,5.00 to 6.00,"Cn1cc(-c2ccc(-c3cnn4cccc(C5=CCN(C(N)=O)CC5)c34)cc2)cn1 [Compound P-0185, 4-[3-[4-(1-methylpyrazol-4-yl)phenyl]pyrazolo[1,5-a]pyridin-4-yl]-3,6-dihydro-2H-pyridine-1-carboxamide]"
7.00 to 10.00,7.00 to 10.00,"N#CC1CC=C(c2nccn3ncc(-c4ccc(-c5cnn(CCN6CCOCC6)c5)cc4)c23)CC1 (stereo not drawn) [Compound P-0051, 4-(3-(4-(1-(2-morpholinoethyl)-1H-pyrazol-4-yl)phenyl)pyrazolo[1,5-a]pyrazin-4-yl)cyclohex-3-ene-1-carbonitrile]"
7.00 to 10.00,7.00 to 10.00,"CC(C)(O)Cn1cc(-c2ccc(-c3cnn4ccnc(C5=CCC(C#N)CC5)c34)cc2Cl)cn1 (stereo not drawn) [Compound P-0042, 4-(3-(3-chloro-4-(1-(2-hydroxy-2-methylpropyl)-1H-pyrazol-4-yl)phenyl)pyrazolo[1,5-a]pyrazin-4-yl)cyclohex-3-ene-1-carbonitrile]"
7.00 to 10.00,7.00 to 10.00,"N#CC1CCC(c2cccn3ncc(-c4ccc(-n5ccnn5)cc4)c23)CC1 (mixture of isomers) [Compound P-0217, (1r,4r) and (1s,4s)-4-[3-[4-(triazol-1-yl)phenyl]pyrazolo[1,5-a]pyridin-4-yl]cyclohexanecarbonitrile]"
7.00 to 10.00,7.00 to 10.00,"N#CC1CCC(c2nccn3ncc(-c4ccc(-c5cnn(CC6(C#N)CC6)c5)cc4)c23)CC1 (stereo not drawn) [Compound P-0050, (1s,4s)-4-(3-(4-(1-((1-cyanocyclopropyl)methyl)-1H-pyrazol-4-yl)phenyl)pyrazolo[1,5-a]pyrazin-4-yl)cyclohexane-1-carbonitrile]"
7.00 to 10.00,7.00 to 10.00,"Cn1cc(-c2ccc(-c3cnn4cccc(N5CCC6(CCNC6=O)CC5)c34)cc2)cn1 [Compound P-0170, 8-(3-(4-(1-methyl-1H-pyrazol-4-yl)phenyl)pyrazolo[1,5-a]pyridin-4-yl)-2,8-diazaspiro[4.5]decan-1-one]"
7.00 to 10.00,7.00 to 10.00,"N#CC1CCN(c2c(-c3ccc(-n4cccn4)cc3)cnc3[nH]ccc23)CC1 [Compound P-0219, 1-(5-(4-(1H-pyrazol-1-yl)phenyl)-1H-pyrrolo[2,3-b]pyridin-4-yl)piperidine-4-carbonitrile]"
6.00 to 7.00,7.00 to 10.00,"N#CC1CC=C(c2c(-c3ccc(-n4ccnn4)cc3)cnc3[nH]ccc23)CC1 (stereo not drawn) [Compound P-0201, 4-(5-(4-(1H-1,2,3-triazol-1-yl)phenyl)-1H-pyrrolo[2,3-b]pyridin-4-yl)cyclohex-3-ene-1-carbonitrile]"
7.00 to 10.00,7.00 to 10.00,"CNC(=O)c1ccc2cc(-c3cnn4cccc(C5=CCC(C#N)CC5)c34)ccc2c1 (stereo not drawn) [Compound P-0330, 6-(4-(4-cyanocyclohex-1-en-1-yl)pyrazolo[1,5-a]pyridin-3-yl)-N-methyl-2-naphthamide]"
6.00 to 7.00,6.00 to 7.00,"N#CC1CCN(c2cccn3ncc(-c4ccc(C(=O)N5CCOCC5)cc4)c23)CC1 [Compound P-0258, 1-(3-(4-(morpholine-4-carbonyl)phenyl)pyrazolo[1,5-a]pyridin-4-yl)piperidine-4-carbonitrile]"
7.00 to 10.00,6.00 to 7.00,"CC(C)(C#Cc1nccn2ncc(-c3ccc(N4CCOCC4)c(F)c3)c12)C(N)=O [Compound P-0099, 4-(3-(3-fluoro-4-morpholinophenyl)pyrazolo[1,5-a]pyrazin-4-yl)-2,2-dimethylbut-3-ynamide]"
7.00 to 10.00,7.00 to 10.00,"COc1ncc(C#Cc2cnc3cccc(C4=CCC(C#N)CC4)n23)cn1 (stereo not drawn) [Compound P-0314, 4-(3-((2-methoxypyrimidin-5-yl)ethynyl)imidazo[1,2-a]pyridin-5-yl)cyclohex-3-ene-1-carbonitrile]"
7.00 to 10.00,7.00 to 10.00,"N#CC1CCC(c2nccn3ncc(-c4ccc(-c5cnn(CC6CCC6)c5)cc4)c23)CC1 (stereo not drawn) [Compound P-0022, (1s,4s)-4-(3-(4-(1-(cyclobutylmethyl)-1H-pyrazol-4-yl)phenyl)pyrazolo[1,5-a]pyrazin-4-yl)cyclohexane-1-carbonitrile]"
7.00 to 10.00,7.00 to 10.00,"N#CC1CC=C(c2nccn3ncc(-c4ccc(OCC(O)CN5CCOCC5)cc4)c23)CC1 (stereo not drawn) [Compound P-0078, 4-(3-(4-(2-hydroxy-3-morpholinopropoxy)phenyl)pyrazolo[1,5-a]pyrazin-4-yl)cyclohex-3-ene-1-carbonitrile]"
7.00 to 10.00,6.00 to 7.00,"N#CC1CC=C(c2nccn3ncc(-c4ccc(F)cc4)c23)CC1 (stereo not drawn) [Compound P-0089, 4-(3-(4-fluorophenyl)pyrazolo[1,5-a]pyrazin-4-yl)cyclohex-3-ene-1-carbonitrile]"
6.00 to 7.00,7.00 to 10.00,"Cn1cc(-c2ccc(-c3cnc4[nH]ccc4c3N3CCC4(CC3)C(=O)Nc3ccccc34)cc2)cn1 [Compound P-0272, 1′-(5-(4-(1-methyl-1H-pyrazol-4-yl)phenyl)-1H-pyrrolo[2,3-b]pyridin-4-yl)spiro[indoline-3,4′-piperidin]-2-one]"
7.00 to 10.00,7.00 to 10.00,"N#CC1CC=C(c2nccn3ncc(-c4ccc(-c5cnn(CCN6CCCC6)c5)cc4)c23)CC1 (stereo not drawn) [Compound P-0049, 4-(3-(4-(1-(2-(pyrrolidin-1-yl)ethyl)-1H-pyrazol-4-yl)phenyl)pyrazolo[1,5-a]pyrazin-4-yl)cyclohex-3-ene-1-carbonitrile]"
7.00 to 10.00,7.00 to 10.00,"N#CC1CC=C(c2cccn3ncc(-c4ccc(OCCN5CCOCC5)cc4)c23)CC1 (stereo not drawn) [Compound P-0183, 4-(3-(4-(2-morpholino-ethoxy)phenyl)pyrazolo[1,5-a]pyridin-4-yl)cyclohex-3-ene-1-carbonitrile]"
